{"source": "patent US20090082341A1", "about": "(SYNOSIA THERAPEUTICS, priority 2007, published 2009)", "key": {"human A1 receptor": {"biological_target": "T1, human A1 receptor (Homo sapiens, UniProt P30542)", "T1 sequence (P30542 1-326)": "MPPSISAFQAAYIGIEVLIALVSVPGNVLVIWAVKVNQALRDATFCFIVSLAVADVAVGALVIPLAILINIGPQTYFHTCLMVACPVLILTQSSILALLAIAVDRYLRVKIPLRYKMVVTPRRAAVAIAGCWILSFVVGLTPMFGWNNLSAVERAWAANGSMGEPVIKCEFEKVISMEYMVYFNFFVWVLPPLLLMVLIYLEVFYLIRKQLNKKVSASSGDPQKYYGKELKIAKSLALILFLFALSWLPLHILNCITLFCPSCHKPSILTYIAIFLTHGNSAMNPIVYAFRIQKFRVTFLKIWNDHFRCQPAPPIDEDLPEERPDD", "test": "NECA-stimulated Ca2+ flux in hA1-Gα16-CHO cells (FLIPR)", "type": "cell-based", "method": "The density of cells was sufficient to yield a confluent monolayer the next day. Hanks balanced salt solution, without phenol red, containing 20 mM HEPES (pH 7.3) and 2.5 mM probenecid (assay buffer) was prepared fresh for each experiment. […] The dye-loading buffer consisted of a final concentration of 2 μM Fluo-4-AM (dissolved in DMSO and pluronic acid) in assay buffer. […] Once dye-loaded, the cells were washed thoroughly on an Embla cell washer with the assay buffer to remove any unincorporated dye. Exactly 100 μl assay buffer was left in each well.\nJ. Pharm. […] The concentration of agonist that produced a half-maximal response is represented by the EC50 value, the logarithm of which yielded the pEC50 value."}, "male Wistar rats": {"test_system": "male Wistar rats", "test": "APEC-induced hypolocomotion test", "type": "in vivo, rat", "method": "APEC (2-[(2-aminoethylamino)carbonylethyl-phenyl-ethylamino]-5′-ethylcarboxamido-adenosine), an A2A receptor agonist, reduces spontaneous motor activity in a dose-dependent manner. APEC-induced hypolocomotion is attenuated by selective A2A receptor antagonists but not by selective A1 receptor antagonists.\nControl animals received vehicle only or vehicle and APEC. The animals were placed in plexiglass test cages with arrays of photocells linked to a computer, and motor activity was recorded for 15 min. Data are mean±SEM based on 8 animals per group.\nAPEC (2-[(2-aminoethylamino)carbonylethyl-phenyl-ethylamino]-5′-ethylcarboxamidoadenosine) is an adenosine A2A receptor agonist which reduces spontaneous motor activity in a dose-dependent manner. APEC-induced hypolocomotion is attenuated by selective A2A receptor antagonists but not by selective A1 receptor antagonists (Marston H M et al. Pharmacological characterization of a simple behavioral response mediated selectively by central adenosine A1 receptors, using in vivo and in vitro techniques. J Pharm Exp Ther. 1998; 285:1023-1030.)\nMale adult Wistar rats (HanBrl: Wist (SPF) RCC) weighing approximately 140-200 g were used. The animals were housed in groups of four in Macrolon Type 3 cages (810 cm^2) with sawdust bedding. Tap water and standard laboratory chow (Ratte Alleinfutter, extrudat No 3436; Provimikliba Kaiseraugst, Switzerland) were continuously available except during testing. The animal quarters were maintained on a 12:12 hr light-dark cycle with light onset at 6 a.m. Room temperature (21-23° C.) and humidity (55-65%) were kept constant. At the conclusion of testing, rats were euthanized by means of CO2 inhalation. […]\nLocomotor activity was monitored with a Digiscan Animal Activity Monitoring system (Model RXYZCM Omnitech Electronics, Columbus, Ohio). […] Ten minutes after APEC administration, animals were then placed in the test cages where horizontal activity was recorded for 15 min. […]\nData was analyzed by Kruskal-Wallis ANOVA followed by Mann-Whitney U-test. […]"}, "[1]": {"conditions": "po, 2 h before recording, APEC 0.01 mg/kg sc"}}, "data": [{"compound": "COc1ccc(N2CCOCC2)c2sc(NC(=O)N3CCC(C)(O)CC3)nc12", "note": "[4-hydroxy-4-methyl-piperidine-1-carboxylic acid (4-methoxy-7-morpholin-4-yl-benzothiazol-2-yl)-amide]", "values": [{"measurement": "Hill slope, hA1 Ca2+ flux", "setting": "human A1 receptor", "value": 0.7}, {"measurement": "IC50", "setting": "human A1 receptor; read-out: pIC50, antagonism of NECA-stimulated Ca2+ flux, hA1 (converted)", "value": "> 10", "unit": "µM"}, {"measurement": "effect on APEC-induced deficits in locomotor activity", "setting": "male Wistar rats; 0.3 to 10 mg/kg po, vs vehicle + APEC", "value": "significantly reduced"}, {"measurement": "ID50, reversal of APEC-induced deficits in locomotor activity", "setting": "male Wistar rats; [1]", "value": 0.5, "unit": "mg/kg"}, {"measurement": "ID90, reversal of APEC-induced deficits in locomotor activity", "setting": "male Wistar rats; [1]", "value": 3.4, "unit": "mg/kg"}]}]}
